Assay [1] concerns platelet deposition. Particulars: systemic administration, porcine carotid model; cited from earlier work.
In assay [2] the test system is balloon-injured rabbit femoral artery. As to the kind of experiment: Neointimal proliferation after balloon injury of femoral artery (morphometry). The assay is classed as in vivo. The note with it: 14 days after balloon injury, local delivery 15 minutes. Here is the method:
Femoral arteries were isolated and balloon injured as described below. pS-BSA or pS-NO-BSA were applied in a paired fashion directly into the arterial lumen for 15 minutes and then blood flow was re-established. […] Neointimal proliferation is reported as the absolute neointimal area in FIG. 5A and as a ratio of neointima/media in FIG. 5B in 4-6 segments from each artery. Data are expressed as mean +/− SEM and are derived from 15 vessels in the BSA and S-NO-BSA groups, 11 vessels in the PS-BSA group, 7 vessels in the PS-NO-BSA and SHAM groups, and 5 in the SNP group. *P<0.05, pS-NO-BSA vs. PS-BSA. +/+P<0.05 Sodium nitroprusside vs. pS-BSA for both FIGS. 5A and 5B.
Animal Preparation: All animal preparations were performed within the institutional guidelines of the Brockton/West Roxbury Department of Veteran Affairs Medical Center and Boston University Medical Center, and in accordance with the guiding principles of the American Physiological Society. New Zealand white rabbits (3.5-4.2 kg) of either sex were premedicated with 5 mg/kg intramuscular (IM) xylazine hydrochlolide (Miles Pharmaceuticals, Shawnee Mission, Kans.), and 0.1 mg/kg subcutaneous (SC) atropine sulfate (Lyphomed, Deerfield, Ill.) fifteen minutes prior to the induction of anesthesia. Anesthesia was induced with 40 mg/kg IM ketamine hydrochloride (Fort Dodge Laboratories, Fort Dodge, Ind.) and 5 mg/kg IM acepromazine maleate (Aveco Company, Inc., Fort Dodge, Ind.). Additional doses of ketamine hydrochloride were administered as necessary to maintain anesthesia. For survival studies, 100,000 U penicillin G (Apothecon of Bristol-Myers Squibb, Princeton, N.J.), was administered IM perioperatively. The skin over the femoral arteries was next infiltrated with 1% lidocaine (Astra Pharmaceuticals, Inc., Westborough, Mass.) and the common femoral arteries were exposed from the inguinal ligament to the superficial femoral artery. Arteries were cleared of connective tissue, side branches were ligated, and the superficial femoral artery was suspended with silk ties. A 1.5-to-2.0 cm length of femoral artery was isolated from the circulation proximally and distally with neurosurgical microaneurysm clips. The superficial femoral-artery was cannulated with a 2F Fogarty balloon catheter (American Edwards Laboratories, Santa Ana, Calif.) that was passed into the isolated segment of femoral artery. The balloon was inflated with sufficient air to generate slight resistance and withdrawn three times. A 20 g angiocath was then inserted in the arteriotomy and 1 ml of 25.8 mg/ml PS-NO-BSA or 49.2 mg/ml S-NO-BSA was administered over 15 minutes. The contralateral femoral artery was prepared identically and an appropriate control (25.8 mglml pS-BSA, 49.2 mg/ml BSA or 0.66 mg/ml sodium nitroprusside) was administered. For binding studies, 0.5 ml of [^125I]-labeled nitrosylated albumin or control was administered. Following administration of the agent, the superficial femoral artery was ligated and flow reestablished. Sham-operated animals underwent surgical exposure and sidebranch ligation, but no balloon injury was performed or local delivery administered. The area of balloon injury was marked by surgical staples in the adjacent muscle fascia. For chronic studies, the incision was closed with subcuticular absorbable suture and the animals allowed to recover. For acute studies, blood was allowed to circulate through the treated areas for 15 minutes prior to vessel harvest. In some experiments, a distant control vessel, the right carotid artery, was isolated and harvested without any other manipulation.
A 7F plastic cannula was inserted into the abdominal aorta and the vessels perfused clear with saline followed by fixation at 100 mm Hg pressure with 10% buffered formalin. The vessels were stored in 10% buffered formalin and the samples paraffin-embedded and microtome-sectioned. […]

The subject of assay [3] is platelet deposition. As to the kind of experiment: Indium-111-labeled platelet deposition and thrombus on coated dacron grafts in transected carotid arteries. It counts as in vivo, dogs. Particulars: for average percent increase in graft weight due to thrombus formation on the luminal surface: dacron grafts, dog carotid artery, 2 hours, three grafts. An excerpt: This method requires the removal of platelets from an animal or human subject. The platelets are labeled with a radioactive material such as Indium^111, which emits gamma rays, detectable by a gamma counter placed 3 to 6 inches away from the source of radioactive platelets. The labeled platelets are either reinjected into the animal or human […], or contacted with the artificial surface […]. Platelets will adhere to artificial surfaces or acutely damaged arterial surfaces. Thus, the number of normal platelets and radioactive platelets which stick to the surface is an indication of the thrombogenicity of the surface.
First, the inventors coated dacron grafts and cardiac catheters with S-nitroso-bovine serum albumin (BSA). In three separate experiments, an identical pair of 6 mm. (internal diameter) knitted dacron grafts, 5 cm. in length, were prepared for surgical placement in the transected carotid arteries of three anesthetized dogs. No heparin was given. One graft was soaked in 5% BSA and the other graft was soaked in 5% BSA combined with 0.5 mM nitric oxide (producing S-nitroso-BSA) for one hour prior to insertion, and then rinsed in saline. The grafts were sutured in place with a continuous 6-0 proline suture.
Indium^111-labeled platelets are very useful in detecting platelet accumulation on vascular grafts. Therefore, Indium^111-labeled platelets were prepared according to standard methods described in Heyns “Method for Labeling Platelets with In^111-oxine”. In: Platelet Kinetics and Imaging Vol. II, Editors Heyns et al., CRC Press, 1985; and Sheffel et al., J. Nucl. Med., 20: 524-531, 1979, and injected prior to insertion of the grafts. […] The grafts were then placed in a Nal gamma well counter and counted for four minutes.

Assay [4] has as its system clotting on the catheter wall. The assay can be described thus: Clotting on coated 3 FR USC1 catheters implanted in carotid artery. It counts as in vivo, dogs. Particulars: catheters soaked 12 hours, in dog carotid artery 6-8 hours, no heparin. Here is the method: In five anesthetized dogs, both carotid arteries were exposed. Two 3 FR USC1 catheters were prepared for arterial implantation. One catheter was soaked in a 5% BSA solution for 12 hours, while the other was soaked in a 5% BSA solution which also contained 1 mg/ml of sodium nitroprusside. One each of the two coated catheters was placed randomly in the right or left carotid artery of the dog through a small incision sealed with a 6-0 proline suture. The catheters were advanced for 5 cm into the arterial lumen. The dogs were not given any heparin. The catheters were removed 6-8 hours later and examined for clotting on the catheter wall and at the site where the catheter entered the carotid wall.

Assay [5] concerns platelet deposition. As to the kind of experiment: Indium-111-labeled platelet deposition on coated, dried and stored PVC tubing placed as femoral artery shunt. Particulars: PVC tubing used three days after coating, femoral artery shunt 2 hours. It counts as in vivo, dog. Here is the method:
The inventors conducted an additional experiment to investigate whether S-nitroso-BSA can be used to coat a surface such as polyvinyl chloride (PVC), and in addition, whether such surfaces can be treated at one time, and used at a later time. In this experiment, three pieces of PVC, 3 mm in internal diameter and 2 cm. in length were soaked in BSA for 4 hours, allowed to dry, and placed in a dark place. Three identical pieces of PVC tubing were soaked in an S-nitroso-BSA solution for 4 hours, dried, and also placed in the dark.
Three days after coating, a pair of PVC tubing pieces, one coated with BSA, and one coated with S-nitroso-BSA, were placed as a shunt in each of the two femoral arteries of a dog. The dog was injected with Indium^111-labeled platelets as previously described. Two hours after the PVC shunts were placed in the circulation with radioactive platelets, they were removed and placed in the Nal gamma counter.

Assay [6] concerns platelet deposition. As to the kind of experiment: Indium-111-labeled platelet deposition on coated 5 FR USC1 catheters in femoral arteries. The assay is classed as in vivo, dogs. Particulars: 5 FR catheters in dog femoral arteries 2 hours, counted four minutes, average of three. The source says:
In addition, three pairs of 5 FR USC1 catheters were studied. One catheter was soaked in 5% BSA, while the other catheter was soaked in a mixture of S-nitroso BSA for one hour. The catheters were rinsed with saline and one each was inserted into the right or left femoral arteries of the dogs described above, and left for two hours. Each catheter was flushed with normal saline every one-half hour, but no heparin was given. The catheters were then removed and rinsed with saline. Equal lengths of the catheters were cut from the distal ends and each one was placed in a Nal gamma counter and the radioactivity was counted for four minutes.

For assay [7], the system named is damaged coronary artery. The assay can be described thus: Cyclic flow reductions (CFRs) in damaged, stenosed coronary artery. It counts as in vivo, dogs. The note with it: approximately 0.5 mM NO, given selectively into circumflex coronary artery.

For the compound `[NH-]c1c[n+](N2CCOCC2)no1` [SIN-1], in assay [1], the “reduction in platelet deposition” value is recorded as 2.3 fold.
Take “bovine serum albumin [BSA, reference compound]”: in assay [2], the neointima/media ratio was 1.07+/−0.167 and the neointimal area is 2.54+/−0.33 ×10^5 μm^2. For the same compound, in assay [3] (dacron grafts soaked 1 h, in dog carotid artery 2 hours, average of three grafts), the “Indium^111-labeled platelet counts on graft” value is given as 654,000 +/−89,000 counts/4 minutes. Besides, the “average percent increase in graft weight due to thrombus formation on the luminal surface” value in assay [3] amounted to 410% +/−97%. For the same compound, the “clotting on the catheter wall and entry site” value in assay [4] was “considerably more clotting”. Besides, in assay [5], the “Indium^111-labeled platelet counts on PVC shunt” value is 200,870 counts/4 minutes. For the same compound, the “Indium^111-labeled platelet counts on catheter” value in assay [6] is reported as 9,000±1,100 counts.
For the compound “S-nitroso-bovine serum albumin [S-nitroso-BSA]”, in assay [2], the neointima/media ratio is listed as 0.72+/−0.084 and the neointimal area was 1.83+/−0.18 ×10^5 μm^2. In addition, the “passivation of damaged arterial wall compared with sodium nitroprusside” value in assay [7] was “better passivation and the effect lasts longer”. In addition, the “average percent increase in graft weight due to thrombus formation on the luminal surface” value in assay [3] came out at 196% +/−71%. In assay [5], the “Indium^111-labeled platelet counts on PVC shunt” value is reported as 97,510 counts/4 minutes. In addition, the “Indium^111-labeled platelet counts on catheter” value in assay [6] is on record as 2,850±800 counts.

These data come from patent publication US6352709B1, “Localized use of nitric oxide-adducts to prevent internal tissue damage” (NitroMed, Inc., priority 1993, dated 2002).
